Results published in patent US12391737B2, “Soluble NPY2 receptor agonists” (Boehringer Ingelheim International GmbH, priority 2020, dated 2025).
*1 amine or outer side, *2 acyl side, *3 side chain or, on linkers, in order; H or OH if unused. Where a SMILES comes first, the peptide text is derived from it. Side-chain parts run from the residue outwards. The star is where a group is joined. C18 diacid = O=C(O)CCCCCCCCCCCCCCCCC(=O)*; γGlu = O=C(O)[C@H](CCC(=O)[*:2])N[*:1]; Isovaleryl = CC(C)CC(=O)*; Ahx = NCCCCCC(=O)O

Columns and labels:
[1] = biological target: T1, Human Neuropeptide Y2 Receptor (Homo sapiens, UniProt P49146); assay: Radioligand binding competition assay (RLB); details: Table 3, 125I-PYY(1-36) competition; read-out: Ki
T1 construct: purchased CHEMICON HTS066M
T1 sequence (P49146 1-381): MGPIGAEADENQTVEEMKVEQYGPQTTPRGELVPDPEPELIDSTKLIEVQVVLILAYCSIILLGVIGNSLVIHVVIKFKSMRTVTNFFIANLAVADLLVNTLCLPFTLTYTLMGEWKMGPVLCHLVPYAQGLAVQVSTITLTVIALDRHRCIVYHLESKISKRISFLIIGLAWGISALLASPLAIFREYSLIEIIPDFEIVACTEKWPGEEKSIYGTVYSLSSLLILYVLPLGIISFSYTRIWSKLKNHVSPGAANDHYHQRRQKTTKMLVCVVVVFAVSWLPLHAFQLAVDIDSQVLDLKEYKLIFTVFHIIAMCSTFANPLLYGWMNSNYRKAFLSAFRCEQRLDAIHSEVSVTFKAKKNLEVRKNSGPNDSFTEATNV
How it was run: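 Filtration competition binding on membranes from cells expressing the receptor, 0.5 μg protein/well, in 50 mM HEPES, 5 mM MgCl2, 1 mM CaCl2, pH 7.4, with 0.2% ovalbumin. Incubation ran 2 h at room temperature, followed by GF/C filtration and scintillation counting. IC50 came from nonlinear sigmoidal fits.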

[2] = Solubility determination; details: for Sol6: pH 6; for Sol7: pH 7
How it was run: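 Solubility is derived from the ratio of reversed-phase peak areas, filtered sample over a control dissolved at 1 mg/ml in 50% acetonitrile. Peptides are agitated for 2 hours at room temperature in 0.1 M sodium diphosphate at pH 6.4 or 7.0, aiming at 10 mg/ml.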

| Ki [1] [nM] | Sol6 [2] [mg/mL] | Sol7 [2] [mg/mL] | Structure (SMILES) |
| --- | --- | --- | --- |
| 2.59 | 9.6 | 9.7 | CC(C)CC(=O)N[C@@H](C)C(=O)N1CCC[C@H]1C(=O)N[C@@H](CCC(=O)O)C(=O)N[C@@H](CCCCNC(=O)CCCCCNC(=O)CC[C@H](NC(=O)CCCCCCCCCCCCCCCCC(=O)O)C(=O)O)C(=O)N1CCC[C@H]1C(=O)N[C@@H](CCC(=O)O)C(=O)N[C@@H](CCC(=O)O)C(=O)N[C@@H](CC(=O)O)C(=O)N[C@@H](C)C(=O)N[C@H](C(=O)N1CCC[C@H]1C(=O)N[C@@H](CCC(=O)O)C(=O)N[C@@H](CCC(=O)O)C(=O)N[C@@H](CC(C)C)C(=O)N[C@@H](CCC(N)=O)C(=O)N[C@@H](CCCNC(=N)N)C(=O)N[C@@H](Cc1ccc(O)cc1)C(=O)N[C@@H](Cc1ccc(O)cc1)C(=O)N[C@H](C(=O)N[C@@H](CCC(N)=O)C(=O)N[C@@H](CC(C)C)C(=O)N[C@@H](CCCNC(=N)N)C(=O)N[C@@H](Cc1c[nH]cn1)C(=O)N[C@@H](Cc1ccc(O)cc1)C(=O)N[C@@H](Cc1ccc(O)cc1)C(=O)N[C@@H](CC(N)=O)C(=O)N[C@@H](Cc1c[nH]c2ccccc12)C(=O)N[C@@H](CC(C)C)C(=O)N[C@H](C(=O)N[C@@H](CCCNC(=N)N)C(=O)N[C@@H](CCC(N)=O)C(=O)N[C@@H](CCCNC(=N)N)C(=O)N[C@@H](Cc1ccc(O)cc1)C(N)=O)[C@@H](C)O)C(C)C)[C@@H](C)O [Compound 51, N{alpha-4}-(3-methylbutanoyl)-N{epsilon-7}-(6-[(4S)-4-carboxy-4-(17-carboxyheptadecanamido)butanamido]hexanoyl)-[4A,7K,9E,13T,18Q,22V,23Q,28Y,30W,31L]-hPYY(4-36)] |
| 0.21 | 3.1 | 1.2 | CC(C)CC(=O)N[C@@H](C)C(=O)N1CCC[C@H]1C(=O)N[C@@H](CCC(=O)O)C(=O)N[C@@H](CCCCNC(=O)CCCCCNC(=O)CC[C@H](NC(=O)CCCCCCCCCCCCCCCCC(=O)O)C(=O)O)C(=O)N1CCC[C@H]1C(=O)NCC(=O)N[C@@H](C)C(=O)N[C@@H](CC(=O)O)C(=O)N[C@@H](C)C(=O)N[C@@H](CO)C(=O)N1CCC[C@H]1C(=O)N[C@@H](CCC(=O)O)C(=O)N[C@@H](CCCCN)C(=O)N[C@@H](CC(C)C)C(=O)N[C@@H](CCC(N)=O)C(=O)N[C@@H](CCCNC(=N)N)C(=O)N[C@@H](Cc1ccc(O)cc1)C(=O)N[C@@H](Cc1ccc(O)cc1)C(=O)N[C@H](C(=O)N[C@@H](CO)C(=O)N[C@@H](CC(C)C)C(=O)N[C@@H](CCCNC(=N)N)C(=O)N[C@@H](Cc1c[nH]cn1)C(=O)N[C@@H](Cc1ccc(O)cc1)C(=O)N[C@@H](Cc1ccc(O)cc1)C(=O)N[C@@H](Cc1c[nH]cn1)C(=O)N[C@@H](CCCCN)C(=O)N[C@@H](CC(C)C)C(=O)N[C@H](C(=O)N[C@@H](CCCNC(=N)N)C(=O)N[C@@H](CCC(N)=O)C(=O)N[C@@H](CCCNC(=N)N)C(=O)N[C@@H](Cc1ccc(O)cc1)C(N)=O)[C@@H](C)O)C(C)C [Compound 174, N{alpha-4}-(3-methylbutanoyl)-N{epsilon-7}-(6-[(4S)-4-carboxy-4-(17-carboxyheptadecanamido)butanamido]hexanoyl)-[4A,7K,10A,16K,18Q,22V,28Y,29H,30K,31L]-hPYY(4-36)] (Isovaleryl-APEK([Ahx-γGlu-C18 diacid])PGADASPEKLQRYYVSLRHYYHKLTRQRY-NH2) |
| 1.38 | >10.0 | >10.0 | CC[C@H](C)[C@H](NC(=O)[C@H](CCC(=O)O)NC(=O)[C@H](CCC(=O)O)NC(=O)[C@@H]1CCCN1C(=O)[C@H](CCC(=O)O)NC(=O)[C@H](C)NC(=O)[C@H](CC(=O)O)NC(=O)[C@H](C)NC(=O)[C@H](CCC(=O)O)NC(=O)[C@@H]1CCCN1C(=O)[C@H](CCCCNC(=O)CCCCCNC(=O)CC[C@H](NC(=O)CCCCCCCCCCCCCCCCC(=O)O)C(=O)O)NC(=O)[C@H](C)NC(=O)[C@@H]1CCCN1C(=O)[C@H](C)NC(=O)CC(C)C)C(=O)N[C@@H](CCC(N)=O)C(=O)N[C@@H](CCCNC(=N)N)C(=O)N[C@@H](Cc1ccc(O)cc1)C(=O)N[C@@H](Cc1ccc(O)cc1)C(=O)N[C@H](C(=O)N[C@@H](CO)C(=O)N[C@@H](CC(C)C)C(=O)N[C@@H](CCCNC(=N)N)C(=O)N[C@@H](Cc1c[nH]cn1)C(=O)N[C@@H](Cc1ccc(O)cc1)C(=O)N[C@@H](Cc1ccc(O)cc1)C(=O)N[C@@H](CC(N)=O)C(=O)N[C@@H](Cc1c[nH]c2ccccc12)C(=O)N[C@@H](CC(C)C)C(=O)N[C@H](C(=O)N[C@@H](CCCNC(=N)N)C(=O)N[C@@H](CCC(N)=O)C(=O)N[C@@H](CCCNC(=N)N)C(=O)N[C@@H](Cc1ccc(O)cc1)C(N)=O)[C@@H](C)O)C(C)C [Compound 198, N{alpha-4}-(3-methylbutanoyl)-N{epsilon-7}-(6-[(4S)-4-carboxy-4-(17-carboxyheptadecanamido)butanamido]hexanoyl)-[4A,6A,7K,9E,10A,13E,17I,18Q,22V,28Y,30W,31L]-hPYY(4-36)] |

More lines, now with the values behind:

| Structure (SMILES) | Ki [1] [nM] | Sol6 [2] [mg/mL] | Sol7 [2] [mg/mL] |
| --- | --- | --- | --- |
| CC(C)CC(=O)N[C@@H](C)C(=O)N1CCC[C@H]1C(=O)N[C@@H](C)C(=O)N[C@@H](CCCCNC(=O)CCCCCNC(=O)CC[C@H](NC(=O)CCCCCCCCCCCCCCCCC(=O)O)C(=O)O)C(=O)N1CCC[C@H]1C(=O)N[C@@H](CCC(=O)O)C(=O)N[C@@H](CCC(=O)O)C(=O)N[C@@H](CC(=O)O)C(=O)N[C@@H](C)C(=O)N[C@@H](CO)C(=O)N1CCC[C@H]1C(=O)N[C@@H](CCC(=O)O)C(=O)N[C@@H](CCC(=O)O)C(=O)N[C@@H](CC(C)C)C(=O)N[C@@H](CCC(N)=O)C(=O)N[C@@H](CCCNC(=N)N)C(=O)N[C@@H](CCC(N)=O)C(=O)N[C@@H](Cc1ccc(O)cc1)C(=O)N[C@H](C(=O)N[C@@H](CO)C(=O)N[C@@H](CC(C)C)C(=O)N[C@@H](CCCNC(=N)N)C(=O)N[C@@H](Cc1c[nH]cn1)C(=O)N[C@@H](Cc1ccc(O)cc1)C(=O)N[C@@H](Cc1ccc(O)cc1)C(=O)N[C@@H](CC(N)=O)C(=O)N[C@@H](Cc1c[nH]c2ccccc12)C(=O)N[C@@H](CC(C)C)C(=O)N[C@H](C(=O)N[C@@H](CCCNC(=N)N)C(=O)N[C@@H](CCC(N)=O)C(=O)N[C@@H](CCCNC(=N)N)C(=O)N[C@@H](Cc1ccc(O)cc1)C(N)=O)[C@@H](C)O)C(C)C [Compound 5, N{alpha-4}-(3-methylbutanoyl)-N{epsilon-7}-(6-[(4S)-4-carboxy-4-(17-carboxyheptadecanamido)butanamido]hexanoyl)[4A,6A,7K,9E,18Q,20Q,22V,28Y,30W,31L]-hPYY(4-36)] | 12.7 | 3.6 | 8.8 |
| CC(C)CC(=O)N[C@@H](C)C(=O)N1CCC[C@H]1C(=O)N[C@@H](CCC(=O)O)C(=O)N[C@@H](CCCCNC(=O)CCCCCNC(=O)CC[C@H](NC(=O)CCCCCCCCCCCCCCCCC(=O)O)C(=O)O)C(=O)N1CCC[C@H]1C(=O)N[C@@H](CCC(=O)O)C(=O)N[C@@H](CCC(=O)O)C(=O)N[C@@H](CC(=O)O)C(=O)N[C@@H](C)C(=O)N[C@H](C(=O)N[C@@H](CCC(=O)O)C(=O)N[C@@H](CCC(=O)O)C(=O)N[C@@H](CCC(=O)O)C(=O)N[C@@H](CC(C)C)C(=O)N[C@@H](CCC(N)=O)C(=O)N[C@@H](CCCNC(=N)N)C(=O)N[C@@H](Cc1ccc(O)cc1)C(=O)N[C@@H](Cc1ccc(O)cc1)C(=O)N[C@H](C(=O)N[C@@H](CO)C(=O)N[C@@H](CC(C)C)C(=O)N[C@@H](CCCNC(=N)N)C(=O)N[C@@H](Cc1c[nH]cn1)C(=O)N[C@@H](Cc1ccc(O)cc1)C(=O)N[C@@H](Cc1ccc(O)cc1)C(=O)N[C@@H](CC(N)=O)C(=O)N[C@@H](Cc1c[nH]c2ccccc12)C(=O)N[C@@H](CC(C)C)C(=O)N[C@H](C(=O)N[C@@H](CCCNC(=N)N)C(=O)N[C@@H](CCC(N)=O)C(=O)N[C@@H](CCCNC(=N)N)C(=O)N[C@@H](Cc1ccc(O)cc1)C(N)=O)[C@@H](C)O)C(C)C)[C@@H](C)O [Compound 19, N{alpha-4}-(3-methylbutanoyl)-N{epsilon-7}-(6-[(4S)-4-carboxy-4-(17-carboxyheptadecanamido)butanamido]hexanoyl)[4A,7K,9E,13T,14E,18Q,22V,28Y,30W,31L]-hPYY(4-36)] | 9.63 | 10.0 | 9.2 |
